Data on one molecule can be found in ChEMBL document CHEMBL3608305, “Synergistic activation of quorum sensing in Vibrio harveyi” (Bioorg Med Chem Lett, 2015).

Data set [1] has as its target Autoinducer 2-binding periplasmic protein LuxP (Vibrio harveyi) (UniProt P54300). As to the kind of experiment: Binding affinity to LuxP in Vibrio harveyi BB120 assessed as activation of quorum sensing system after 6 hrs by bioluminescence assay. Conditions: Vibrio campbellii ATCC BAA-1116.
Data set [2] deals with Autoinducer 2-binding periplasmic protein LuxP (Vibrio harveyi, UniProt P54300). As to the kind of experiment: (§1) Binding affinity to LuxP in Vibrio harveyi MM32 assessed as activation of quorum sensing system after 5 hrs by bioluminescence assay in presence of exogenous synthetic DPD.
The target in data set [3] is Autoinducer 2-binding periplasmic protein LuxP (Vibrio harveyi) (UniProt P54300). Described as §1.
The target is the same in data set [4]. Briefly: Binding affinity to LuxP in Vibrio harveyi MM32 assessed as activation of quorum sensing system at 1.5 to 100 uM after 5 hrs by bioluminescence assay in absence of exogenous synthetic DPD.
Data set [5] deals with Vibrio harveyi. Briefly: Toxicity in Vibrio harveyi MM32 at >5 uM. Conditions: in vivo. It counts as organism-based.

Activity calls are given as the source filed them. The rule behind the calls is not given here.

Chain of Autoinducer 2-binding periplasmic protein LuxP (Vibrio harveyi) (P54300 whole entry): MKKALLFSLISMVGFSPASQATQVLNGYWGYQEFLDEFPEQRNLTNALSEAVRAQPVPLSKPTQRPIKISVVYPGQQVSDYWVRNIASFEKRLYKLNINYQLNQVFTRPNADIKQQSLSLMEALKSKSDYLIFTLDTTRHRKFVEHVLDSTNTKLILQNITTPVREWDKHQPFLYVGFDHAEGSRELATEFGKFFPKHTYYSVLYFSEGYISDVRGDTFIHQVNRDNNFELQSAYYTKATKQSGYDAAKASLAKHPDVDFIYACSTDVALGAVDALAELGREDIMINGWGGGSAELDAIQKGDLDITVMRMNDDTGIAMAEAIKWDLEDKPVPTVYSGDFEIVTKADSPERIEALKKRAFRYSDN
Chain of Autoinducer 2-binding periplasmic protein LuxP (P54300 whole entry): as above

On to `O=C(Cc1ccc2ccccc2c1)C(=O)[C@@H](O)CO`, for which the figures for the Activity result in data set [1], in data set [3] and in data set [5] were “Dose-dependent effect”, “Dose-dependent effect” and “Toxic”, respectively. The EC50 (as a rule, the concentration at which the effect is half-maximal) in data set [2] worked out at 20 µM. In data set [4], the outcome was inactive.
